Reference: patent publication US4798905A, “Sulphenylated carbamic acid esters, a process for their preparation and their use” (Bayer Aktiengesellschaft, priority 1984, dated 1989)
≈ marks a conversion by molar mass, not a printed value.

Experiments:
Pyrenophora teres = Pyrenophora teres test (barley)/protective; conditions: protective, 0.025 % by weight in the spray liquor, 7 days after inoculation
Experimental: Solvent: 100 parts by weight of dimethylformamide
Emulsifier: 0.25 part by weight of alkylaryl polyglycol ether
After the spray coating has dried on, the plants are sprayed with a conidia suspension of Pyrenophora teres. The plants then remain in an incubation cabin at 20° C. and 100% relative atmospheric humidity for 48 hours.
The plants are placed in a greenhouse at a temperature of about 20° C. and a relative atmospheric humidity of about 80%.
(§2) Evaluation is carried out 7 days after the inoculation.

Plasmopara viticola = assay: Plasmopara test (vines)/protective; conditions: protective, 7 days after inoculation
Experimental: Solvent: 4.7 parts by weight of acetone
Emulsifier: 0.3 part by weight of alkylaryl polyglycol ether
After the spray coating has dried on, the plants are inoculated with an aqueous spore suspension of Plasmopara viticola and then remain in a humidity chamber at 20° to 22° C. and 100% relative atmospheric humidity for 1 day. The plants are then placed in a greenhouse at 22° C. and about 80% atmospheric humidity for 5 days. The plants are then moistened and placed in a humidity chamber for 1 day.
as §2

Drechslera graminea = Drechslera graminea test (barley)/seed treatment (syn. Helminthosporium gramineum); type: in vivo; conditions: seed treatment, about 3 weeks after sowing, undressed 29.7
Aspergillus niger = assay: Minimum inhibitory concentration (MIC) in agar, Aspergillus niger; type: cell-based; conditions: 336 h, 28° C., two weeks
Experimental: (§1) Active compounds according to the invention are added in concentrations of 0.1 mg/l to 5,000 mg/l to an agar prepared from bierwort and peptone. After being kept at 28° C. and 60 to 70% relative atmospheric humidity for two weeks, the MIC is determined. The MIC is the lowest concentration of active compound at which no growth at all by the species of microbe used takes place, and is shown in the following Table I.

Chaetomium globosum = assay: Minimum inhibitory concentration (MIC) in agar, Chaetomium globosum; type: cell-based; conditions: 336 h, 28° C., two weeks
Experimental: as §1

Penicillium glaucum = assay: Minimum inhibitory concentration (MIC) in agar, Penicillium glaucum; type: cell-based; conditions: 336 h, 28° C., two weeks
Experimental: as §1

Pyricularia oryzae = type: in vivo; conditions: rice, protective; active compound concentration 0.025 %; 4 days after inoculation
Alternaria tenuis = assay: Minimum inhibitory concentration (MIC) in agar, Alternaria tenuis; type: cell-based; conditions: Alternaria alternata, 336 h, 28° C., two weeks
Experimental: as §1

Aureobasidium pullulans = assay: Minimum inhibitory concentration (MIC) in agar, Aureobasidium pullulans; type: cell-based; conditions: 336 h, 28° C., two weeks
Experimental: as §1

Coniophora puteana = assay: Minimum inhibitory concentration (MIC) in agar, Coniophora puteana; type: cell-based; conditions: 336 h, 28° C., two weeks
Experimental: as §1

Lentinus tigrinus = assay: Minimum inhibitory concentration (MIC) in agar, Lentinus tigrinus; type: cell-based; conditions: 336 h, 28° C., two weeks
Experimental: as §1

Polyporus versicolor = assay: Minimum inhibitory concentration (MIC) in agar, Polyporus versicolor; type: cell-based; conditions: Trametes versicolor, 336 h, 28° C., two weeks
Experimental: as §1

Sclerophoma pityophila = assay: Minimum inhibitory concentration (MIC) in agar, Sclerophoma pityophila; type: cell-based; conditions: Sydowia polyspora, 336 h, 28° C., two weeks
Experimental: as §1

COC(=O)N(SC(F)(Cl)Cl)c1ccc(C)c(Cl)c1 [drawing 11]
Disease infestation in % of the untreated control (Pyrenophora teres): 39.4%

O=C(OCC(Cl)(Cl)Cl)N(SC(F)(Cl)Cl)c1ccc(Cl)cc1
Disease infestation in % of the untreated control (Pyrenophora teres): 33.7%

O=C(OCc1ccccc1)N(SC(F)(Cl)Cl)c1ccccc1 [drawing 39]
Infestation in % (Plasmopara viticola; active compound concentration 1 ppm): 47% | Infestation in % (Plasmopara viticola; active compound concentration 2 ppm): 24%

COC(=O)N(SC(F)(Cl)Cl)c1ccccc1
Diseased plants in % of the total plants emerged (Drechslera graminea; 500 mg/kg of seed): 3.1%

COC(=O)N(SC(F)(Cl)Cl)c1ccc(C(F)(F)F)c(Cl)c1 [drawing 32]
Diseased plants in % of the total plants emerged (Drechslera graminea; 500 mg/kg of seed): 1.0%

COC(=O)N(SC(F)(Cl)Cl)c1cccc(Cl)c1 [Example 9]
MIC (Aspergillus niger): < 20 µg/mL | MIC (Chaetomium globosum): < 20 µg/mL | MIC (Penicillium glaucum): < 20 µg/mL

COc1ccc(N(SC(F)(Cl)Cl)C(=O)OC(C)C)cc1OC
Disease infestation in % of the untreated control (Pyrenophora teres): 25.0%

CN(C)S(=O)(=O)N(SC(F)(Cl)Cl)c1ccccc1 [drawing 27, reference compound]
Diseased plants in % of the total plants emerged (Drechslera graminea; 600 mg/kg of seed): 23.9%

COC(=O)N(SC(F)(Cl)Cl)c1ccc(Cl)cc1C [drawing 29]
Diseased plants in % of the total plants emerged (Drechslera graminea; 500 mg/kg of seed): 0.0%

O=C(OCc1ccc(Cl)c(Cl)c1)N(SC(F)(Cl)Cl)c1ccccc1
Disease infestation in % of the untreated control (Pyricularia oryzae): 10%

COC(=O)N(SC(F)(Cl)Cl)c1ccc(Cl)cc1 [drawing 26]
Disease infestation in % of the untreated control (Pyrenophora teres): 37.7%

O=C(OCc1ccccc1)N(SC(F)(Cl)Cl)c1ccccc1 [drawing 36]
Disease infestation in % of the untreated control (Pyricularia oryzae): 0%

COC(=O)N(SC(F)(Cl)Cl)c1cccc(Cl)c1Cl [Example 14]
MIC (Aspergillus niger): < 20 µg/mL | MIC (Chaetomium globosum): < 20 µg/mL | MIC (Penicillium glaucum): < 20 µg/mL

COC(=O)N(SC(F)(Cl)Cl)c1ccc(Cl)c(Cl)c1 [drawing 25]
Disease infestation in % of the untreated control (Pyrenophora teres): 14.5%

CCOc1ccc(N(SC(F)(Cl)Cl)C(=O)OC)cc1
Disease infestation in % of the untreated control (Pyrenophora teres): 29.4%

COC(=O)N(SC(F)(Cl)Cl)c1ccc(C)c(Cl)c1 [drawing 28]
Diseased plants in % of the total plants emerged (Drechslera graminea; 500 mg/kg of seed): 3.2%

COCCOC(=O)N(SC(F)(Cl)Cl)c1ccccc1
Disease infestation in % of the untreated control (Pyricularia oryzae): 30%

COC(=O)N(SC(F)(Cl)Cl)c1ccc(Cl)cc1 [Example 1]
MIC (Aspergillus niger): < 20 µg/mL | MIC (Chaetomium globosum): < 20 µg/mL | MIC (Penicillium glaucum): < 20 µg/mL

COC(=O)N(SC(F)(Cl)Cl)c1cc(Cl)c(OC)c(Cl)c1
Disease infestation in % of the untreated control (Pyrenophora teres): 25.0%

COC(=O)N(SC(F)(Cl)Cl)c1ccc(Cl)cc1C [Example 29]
MIC (Aspergillus niger): < 20 µg/mL | MIC (Chaetomium globosum): < 20 µg/mL | MIC (Penicillium glaucum): < 20 µg/mL

COC(=O)N(SC(F)(Cl)Cl)c1cccc(C(F)(F)F)c1 [drawing 14]
Disease infestation in % of the untreated control (Pyrenophora teres): 30.3%

COC(=O)N(SC(F)(Cl)Cl)c1ccc(Cl)cc1Cl [Example 16]
MIC (Aspergillus niger): < 20 µg/mL | MIC (Chaetomium globosum): < 20 µg/mL | MIC (Penicillium glaucum): < 20 µg/mL

COC(=O)N(SC(F)(Cl)Cl)c1cccc(C(F)(F)F)c1 [drawing 30]
Diseased plants in % of the total plants emerged (Drechslera graminea; 500 mg/kg of seed): 0.0%

COC(=O)N(SC(Cl)(Cl)Cl)c1ccccc1 [drawing 18]
Disease infestation in % of the untreated control (Pyrenophora teres): 20.3%

COC(=O)N(SC(F)(Cl)Cl)c1ccc(C)c(Cl)c1 [Example 31]
MIC (Aspergillus niger): < 20 µg/mL | MIC (Chaetomium globosum): < 20 µg/mL | MIC (Penicillium glaucum): < 20 µg/mL

COC(=O)N(SC(F)(Cl)Cl)c1ccc(OC)c(OC)c1
Disease infestation in % of the untreated control (Pyrenophora teres): 0.0%

COC(=O)N(SC(F)(Cl)Cl)c1cc(Cl)cc(Cl)c1 [drawing 15]
Disease infestation in % of the untreated control (Pyrenophora teres): 30.3%

COc1c(Cl)cc(N(SC(F)(Cl)Cl)C(=O)OC(C)C)cc1Cl
Disease infestation in % of the untreated control (Pyrenophora teres): 25.0%

CN(C)S(=O)(=O)N(SC(F)(Cl)Cl)c1ccccc1 [drawing 10, reference compound]
Disease infestation in % of the untreated control (Pyrenophora teres): 72.5%

COC(=O)N(SC(F)(Cl)Cl)c1cc(Cl)cc(Cl)c1 [drawing 31]
Diseased plants in % of the total plants emerged (Drechslera graminea; 500 mg/kg of seed): 0.0%

COC(=O)N(SC(F)(Cl)Cl)c1ccc(Cl)cc1C [drawing 13]
Disease infestation in % of the untreated control (Pyrenophora teres): 31.3%

CCOC(=O)N(SC(F)(Cl)Cl)c1cc(Cl)cc(Cl)c1 [Example 23]
MIC (Alternaria tenuis): 5 µg/mL (≈ 13.6 µM) | MIC (Aspergillus niger): 35 µg/mL (≈ 95.4 µM) | MIC (Aureobasidium pullulans): 3.5 µg/mL (≈ 9.54 µM) | MIC (Chaetomium globosum): 10 µg/mL (≈ 27.2 µM) | MIC (Coniophora puteana): 1 µg/mL (≈ 2.72 µM) | MIC (Lentinus tigrinus): 1 µg/mL (≈ 2.72 µM) | MIC (Penicillium glaucum): 7.5 µg/mL (≈ 20.4 µM) | MIC (Polyporus versicolor): 2 µg/mL (≈ 5.45 µM) | MIC (Sclerophoma pityophila): 1.5 µg/mL (≈ 4.09 µM)

COC(=O)N(SC(F)(Cl)Cl)c1cccc(Cl)c1 [drawing 16]
Disease infestation in % of the untreated control (Pyrenophora teres): 20.3%

COC(=O)N(SC(F)(Cl)Cl)c1ccc(Cl)cc1Cl [drawing 12]
Disease infestation in % of the untreated control (Pyrenophora teres): 37.7%

COC(=O)N(SC(Cl)(Cl)Cl)c1ccccc1 [Example 41]
MIC (Alternaria tenuis): 0.5 µg/mL (≈ 1.66 µM) | MIC (Aspergillus niger): 5 µg/mL (≈ 16.6 µM) | MIC (Aureobasidium pullulans): 1.5 µg/mL (≈ 4.99 µM) | MIC (Chaetomium globosum): 2 µg/mL (≈ 6.65 µM) | MIC (Coniophora puteana): 0.1 µg/mL (≈ 0.333 µM) | MIC (Lentinus tigrinus): 0.5 µg/mL (≈ 1.66 µM) | MIC (Penicillium glaucum): 20 µg/mL (≈ 66.5 µM) | MIC (Polyporus versicolor): 1.5 µg/mL (≈ 4.99 µM) | MIC (Sclerophoma pityophila): 1 µg/mL (≈ 3.33 µM)

COC(=O)N(SC(F)(Cl)Cl)c1ccc(Cl)c(Cl)c1 [Example 18]
MIC (Aspergillus niger): 35 µg/mL (≈ 99.1 µM) | MIC (Chaetomium globosum): < 20 µg/mL | MIC (Penicillium glaucum): < 20 µg/mL

COC(=O)N(SC(F)(Cl)Cl)c1ccc(C(F)(F)F)c(Cl)c1 [drawing 17]
Disease infestation in % of the untreated control (Pyrenophora teres): 20.3%
